Test system: transformed human keratinocyte cell line (FEP 1811)
Test: Clonogenic survival cell culture assay for radioprotective activity (12 Gy 137Cs gamma irradiation)
Assay type: cell-based
Conditions: 12 Gy; for DMF10 (dose modification factor at a concentration of 10 microM of radioprotector): 10 microM radioprotector; for DMFm (dose modification factor at maximum protection): DMF=Dp/Dc at survival level Sm; for PF (protection factor = Sm/So): survival at maximum protection vs irradiation only
Method in brief: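 Survival after irradiation gave protection factor PF = Sm/So (maximum-protection survival over irradiation-only survival). DMF = Dp/Dc is the ratio of doses giving survival Sm with and without radioprotector. DMF10 uses survival at 10 microM radioprotector in place of Sm.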

Question: What does the source list for `CN1CCN(c2ccc3nc(-c4ccc5nc(-c6ccccn6)[nH]c5c4)[nH]c3c2)CC1` [Example 2, 2-(5′-(5″-(4′″-Methylpiperazin-1′″-yl)benzimidazol-2″-yl)benzimidazol-2′-yl)pyridine]?
Answer: DMF10 (dose modification factor at a concentration of 10 microM of radioprotector): 1.93; DMFm (dose modification factor at maximum protection): 2.10; PF (protection factor = Sm/So): 18.2

Question: For `Cc1ccc(-c2nc3ccc(-c4nc5ccc(N6CCN(C)CC6)cc5[nH]4)cc3[nH]2)nc1` [Example 6, 5-Methyl-2-(5′-(5″-(4′″-methylpiperazin-1′″-yl)benzimidazol-2″-yl)benzimidazol-2′-yl)pyridine], which “DMF10 (dose modification factor at a concentration of 10 microM of radioprotector)” value (shortened to “DMF10”) is on record?
Answer: The value was 2.43.

Question: And the “DMFm (dose modification factor at maximum protection)” value (“DMFm” for short)?
Answer: Its value is 2.52.

Question: What about the “PF (protection factor = Sm/So)” value of the same compound?
Answer: The value was 26.2.

Question: For `c1ccc(-c2nc3ccc(-c4nc5ccc(N6CCOCC6)cc5[nH]4)cc3[nH]2)nc1` [Example 19, 2-(5′-(5″-Morpholinobenzimidazol-2″-yl)benzimidazol-2′-yl)pyridine], which “DMF10” value is on record?
Answer: Its value is 1.66.

Question: And the “DMFm” value?
Answer: Its value is 2.26.

Question: And the “PF (protection factor = Sm/So)” value?
Answer: The value was 69.6.

Question: For `OC1CCN(c2ccc3nc(-c4ccc5nc(-c6cc7ccccc7cn6)[nH]c5c4)[nH]c3c2)CC1` [Example 23, 3-(5′-(5″-(4′″-Hydroxypiperidin-1′″-yl)benzimidazol-2″-yl)benzimidazol-2′-yl)isoquinoline], which “DMF10” value is on record?
Answer: The value was 2.13.

Question: What about the “DMFm” value of the same compound?
Answer: The value was 2.26.

Question: And the “PF (protection factor = Sm/So)” value?
Answer: Its value is 36.5.

From patent USRE46943E1, “Radioprotector compounds and methods” (PETER MACCALLUM CANCER INSTITUTE, priority 2010, dated 2018)
